Assay results reported in patent US11203587B2, “Thyroid hormone receptor beta agonist compounds” (Terns, Inc., priority 2018, dated 2021).

How the values were obtained:
[1] = target: T1, THR beta-LBD (Homo sapiens, UniProt P10828); assay: LanthaScreen TR-FRET Thyroid Receptor beta Coactivator Assay; format: biochemical; details: for THRβ-Selectivity: THR beta over THR alpha, derived from T3-selectivity normalized data; for EC50: TR-FRET coactivator assay, 2 hours incubation at room temperature, run in duplicate multiple times, average data, read-out: EC50 THRβ-FRET
T1 construct: THR alpha-LBD (0.4 nM final concentration) or THR beta-LBD (1.0 nM final concentration) was added; purchased ThermoFisher
T1 sequence (P10828 217-461 limits assumed): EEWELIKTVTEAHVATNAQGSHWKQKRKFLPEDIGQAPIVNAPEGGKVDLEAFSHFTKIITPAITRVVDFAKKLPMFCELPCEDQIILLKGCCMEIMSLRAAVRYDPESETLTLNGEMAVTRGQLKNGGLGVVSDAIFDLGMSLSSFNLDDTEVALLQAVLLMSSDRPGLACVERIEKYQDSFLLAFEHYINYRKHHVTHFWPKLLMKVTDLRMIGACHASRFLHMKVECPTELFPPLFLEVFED
Procedure: LanthaScreen™ TR-FRET Thyroid Receptor alpha Coactivator Assay kit (ThermoFisher) and LanthaScreen™ TR-FRET Thyroid Receptor beta Coactivator Assay kit (ThermoFisher) were used for agonist compound screening. […] Buffer C (ThermoFisher) was added to each well before the 4× mixture of fluorescein-SCR2-2 coactivator (200 nM final concentration), Terbium-labeled anti-GST antibody (2 nM final concentration), and THR alpha-LBD (0.4 nM final concentration) or THR beta-LBD (1.0 nM final concentration) was added.

[2] = target: T2, THR alpha-LBD (Homo sapiens, UniProt P10827); assay: LanthaScreen TR-FRET Thyroid Receptor alpha Coactivator Assay; format: biochemical; details: 2 hours incubation at room temperature, run in duplicate multiple times, average data, read-out: EC50 THRα-FRET
T2 construct: THR alpha-LBD (0.4 nM final concentration) or THR beta-LBD (1.0 nM final concentration) was added; purchased ThermoFisher
Procedure: Example B1: Time-Resolved Fluorescence Resonance Energy Transfer (TR-FRET) Assay for Thyroid Hormone Receptor Agonist Screening
LanthaScreen™ TR-FRET Thyroid Receptor alpha Coactivator Assay kit (ThermoFisher) and LanthaScreen™ TR-FRET Thyroid Receptor beta Coactivator Assay kit (ThermoFisher) were used for agonist compound screening. Compounds in DMSO were diluted using ECHO Liquid Handler (Labcyte Inc.) into 384 plates in 10-point 3-fold series in duplicate (5 micro M final top concentration). Buffer C (ThermoFisher) was added to each well before the 4× mixture of fluorescein-SCR2-2 coactivator (200 nM final concentration), Terbium-labeled anti-GST antibody (2 nM final concentration), and THR alpha-LBD (0.4 nM final concentration) or THR beta-LBD (1.0 nM final concentration) was added. After 2 hours incubation at room temperature in the dark, the TR-FRET signal was measured on an EnVision plate reader (PerkinElmer) with excitation at 340 nm and dual emission readout at 495 and 520 nm with the delay time of 100 micro second and the integration time of 200 micro second. The ratio of emission signal at 520 and at 495 was used to calculate EC50 using GraphPad Prism (GraphPad Software). […] Compounds' THR-beta selectivity values in Table 2 are derived from T3-selectivity normalized data.

T2 sequence (P10827 163-410 isoform P10827-2 limits assumed, other chains not shown): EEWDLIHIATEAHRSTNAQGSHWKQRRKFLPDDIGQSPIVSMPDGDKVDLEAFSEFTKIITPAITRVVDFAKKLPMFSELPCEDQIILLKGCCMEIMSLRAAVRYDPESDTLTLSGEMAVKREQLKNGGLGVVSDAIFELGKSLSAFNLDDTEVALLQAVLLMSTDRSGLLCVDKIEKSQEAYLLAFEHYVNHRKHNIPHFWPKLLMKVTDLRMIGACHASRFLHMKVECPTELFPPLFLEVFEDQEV

Compound	THRβ-Selectivity [1]	EC50 [1] [nM]	EC50 [2] [nM]	THRβ-Selectivity ([1]; listed as 33 P2)	THRβ-Selectivity ([1]; listed as 31 P1)
O=c1[nH]nc(-c2cc(Cl)c(Oc3cc(C4CC4)c(=O)[nH]n3)c(Cl)c2)c(=O)[nH]1 [Compound 6, 6-(3,5-dichloro-4-((5-cyclopropyl-6-oxo-1,6-dihydropyridazin-3-yl)oxy)phenyl)-1,2,4-triazine-3,5(2H,4H)-dione]	23.6	196	981	–	–
CCOC(=O)Cn1nc(-c2cc(Cl)c(Oc3cc(C(C)C)c(=O)[nH]n3)c(Cl)c2)c(=O)[nH]c1=O [Compound 20, ethyl 2-(6-(3,5-dichloro-4-((5-isopropyl-6-oxo-1,6-dihydropyridazin-3-yl)oxy)phenyl)-3,5-dioxo-4,5-dihydro-1,2,4-triazin-2(3H)-yl)acetate]	2.7	1930	1330	–	–
CC(C)c1cc(C(=O)c2c(Cl)cc(-c3n[nH]c(=O)[nH]c3=O)cc2Cl)nn(C)c1=O [Compound 7, 6-(3,5-dichloro-4-(5-isopropyl-1-methyl-6-oxo-1,6-dihydropyridazine-3-carbonyl)phenyl)-1,2,4-triazine-3,5(2H,4H)-dione]	15.3	136	435	–	–
CC(C)c1cc(Oc2c(Cl)cc(-c3nn(C)c(=O)[nH]c3=O)cc2Cl)n[nH]c1=O [Compound 3, 6-(3,5-dichloro-4-((5-isopropyl-6-oxo-1,6-dihydropyridazin-3-yl)oxy)phenyl)-2-methyl-1,2,4-triazine-3,5(2H,4H)-dione]	69.8	114	1230	–	–
Cc1c(-c2n[nH]c(=O)[nH]c2=O)cc(Cl)c(Oc2cc(C(C)C)c(=O)n(C)n2)c1Cl [Compound 5, 6-(3,5-dichloro-4-((5-isopropyl-1-methyl-6-oxo-1,6-dihydropyridazin-3-yl)oxy)-2-methylphenyl)-1,2,4-triazine-3,5(2H,4H)-dione]	2.3	98.6	62.6	–	–
CC(C)c1cc(Cc2c(Cl)cc(-c3n[nH]c(=O)[nH]c3=O)cc2Cl)nn(C)c1=O [Compound 17, 6-(3,5-dichloro-4-((5-isopropyl-1-methyl-6-oxo-1,6-dihydropyridazin-3-yl)methyl)phenyl)-1,2,4-triazine-3,5(2H,4H)-dione]	11.1	34.6	99.6	–	–
CC(C)c1cc(C(=O)c2c(Cl)cc(-c3n[nH]c(=O)[nH]c3=O)cc2Cl)n[nH]c1=O [Compound 8, 6-(3,5-dichloro-4-(5-isopropyl-6-oxo-1,6-dihydropyridazine-3-carbonyl)phenyl)-1,2,4-triazine-3,5(2H,4H)-dione]	9.5	1450	3670	–	–
CC(C)c1cc(C(=O)c2c(Cl)cc(-c3nn(C)c(=O)[nH]c3=O)cc2Cl)n[nH]c1=O [Compound 13, 6-(3,5-dichloro-4-(5-isopropyl-6-oxo-1,6-dihydropyridazine-3-carbonyl)phenyl)-2-methyl-1,2,4-triazine-3,5(2H,4H)-dione]	>27.4	750	> 5000	–	–
CC(C)c1cc(Oc2c(Cl)cc(-c3nn(C(C)C)c(=O)[nH]c3=O)cc2Cl)n[nH]c1=O [Compound 4, 6-(3,5-dichloro-4-((5-isopropyl-6-oxo-1,6-dihydropyridazin-3-yl)oxy)phenyl)-2-isopropyl-1,2,4-triazine-3,5(2H,4H)-dione]	>3.0	> 5000	> 5000	–	–

Now from value to molecule:

THRβ-Selectivity [1]	EC50 [1] [nM]	EC50 [2] [nM]	THRβ-Selectivity ([1]; listed as 33 P2)	THRβ-Selectivity ([1]; listed as 31 P1)	Compound
4.4	22.2	25	–	–	CC(C)c1cc(Oc2c(Cl)cc(-c3n[nH]c(=O)[nH]c3=O)c(F)c2Cl)nn(C)c1=O [Compound 25, 6-(3,5-dichloro-2-fluoro-4-((5-isopropyl-1-methyl-6-oxo-1,6-dihydropyridazin-3-yl)oxy)phenyl)-1,2,4-triazine-3,5(2H,4H)-dione]
–	65.7	274	14.1	–	CC[C@@H](C)c1cc(Oc2c(Cl)cc(-c3n[nH]c(=O)[nH]c3=O)cc2Cl)n[nH]c1=O (single isomer, unassigned) [Compound 33 P2]
8.6	400	1160	–	–	CC(O)c1cc(Oc2c(Cl)cc(-c3n[nH]c(=O)[nH]c3=O)cc2Cl)n[nH]c1=O (stereo not drawn) [Compound 34, 6-(3,5-dichloro-4-((5-(1-hydroxyethyl)-6-oxo-1,6-dihydropyridazin-3-yl)oxy)phenyl)-1,2,4-triazine-3,5(2H,4H)-dione]
>9.5	2880	> 5000	–	–	CC(C)c1cc(Oc2c(Cl)cc(-c3nn(CC(F)(F)F)c(=O)[nH]c3=O)cc2Cl)n[nH]c1=O [Compound 21, 6-(3,5-dichloro-4-((5-isopropyl-6-oxo-1,6-dihydropyridazin-3-yl)oxy)phenyl)-2-(2,2,2-trifluoroethyl)-1,2,4-triazine-3,5(2H,4H)-dione]
10.6	665	1870	–	–	CC(=O)c1cc(Oc2c(Cl)cc(-c3n[nH]c(=O)[nH]c3=O)cc2Cl)nn(C)c1=O [Compound 35, 6-(4-((5-acetyl-1-methyl-6-oxo-1,6-dihydropyridazin-3-yl)oxy)-3,5-dichlorophenyl)-1,2,4-triazine-3,5(2H,4H)-dione]
14.4	987	2670	–	–	CC(O)c1cc(Oc2c(Cl)cc(-c3nn(C)c(=O)[nH]c3=O)cc2Cl)n[nH]c1=O (stereo not drawn) [Compound 31, 6-(3,5-dichloro-4-((5-(1-hydroxyethyl)-6-oxo-1,6-dihydropyridazin-3-yl)oxy)phenyl)-2-methyl-1,2,4-triazine-3,5(2H,4H)-dione]
19.2	670	3440	–	–	CCc1cc(Oc2c(Cl)cc(-c3nn(C)c(=O)[nH]c3=O)cc2Cl)n[nH]c1=O [Compound 28, 6-(3,5-dichloro-4-((5-ethyl-6-oxo-1,6-dihydropyridazin-3-yl)oxy)phenyl)-2-methyl-1,2,4-triazine-3,5(2H,4H)-dione]
20.9	231	1130	–	–	CCC(C)c1cc(Oc2c(Cl)cc(-c3nn(C)c(=O)[nH]c3=O)cc2Cl)n[nH]c1=O (stereo not drawn) [Compound 32, 6-(4-((5-(sec-butyl)-6-oxo-1,6-dihydropyridazin-3-yl)oxy)-3,5-dichlorophenyl)-2-methyl-1,2,4-triazine-3,5(2H,4H)-dione]
21.7	452	3080	–	–	C[C@@H](O)c1cc(Oc2c(Cl)cc(-c3nn(C)c(=O)[nH]c3=O)cc2Cl)n[nH]c1=O (single isomer, unassigned) [Compound 31 P2]
–	1200	> 5000	–	>26.2	C[C@@H](O)c1cc(Oc2c(Cl)cc(-c3nn(C)c(=O)[nH]c3=O)cc2Cl)n[nH]c1=O (single isomer, unassigned) [Compound 31 P1]
12.9	1170	3440	–	–	CC(C)c1cc(Oc2c(Cl)cc(-c3nn(CC#N)c(=O)[nH]c3=O)cc2Cl)n[nH]c1=O [Compound 22, 2-(6-(3,5-dichloro-4-((5-isopropyl-6-oxo-1,6-dihydropyridazin-3-yl)oxy)phenyl)-3,5-dioxo-4,5-dihydro-1,2,4-triazin-2(3H)-yl)acetonitrile]
7.105	2070	4040	–	–	CC(CO)c1cc(Oc2c(Cl)cc(-c3nn(C)c(=O)[nH]c3=O)cc2Cl)n[nH]c1=O (stereo not drawn) [Compound 29, 6-(3,5-dichloro-4-((5-(1-hydroxypropan-2-yl)-6-oxo-1,6-dihydropyridazin-3-yl)oxy)phenyl)-2-methyl-1,2,4-triazine-3,5(2H,4H)-dione]
